Drawing on patent US7153855B2, “Pyrazolopyridinyl pyrimidine therapeutic compounds” (SmithKline Beecham Corporation, priority 2001, dated 2006), this text covers IC50 for 24 compounds.

Some results are limits rather than exact numbers.

The assay deals with HSV-1. Briefly: HSV-1 infection of Vero 76 cells, viral DNA detected by hybridization capture (chemiluminescence). The conditions noted are these: Human alphaherpesvirus 1; HSV-1 in Vero 76 cells, MOI=0.001, compounds incubated 40–48 hours at 37° C.; read-out: IC50. Type of assay: cell-based. The source says: In the following example, “MEM” means Minimal Essential Media; “FBS” means Fetal Bovine Serum; “NP40” and “Igepal” are detergents; “MOI” means Multiplicity of Infection; “NaOH” means sodium hydroxide; “MgCl2” means magnesium chloride; “dATP” means deoxyadenosine 5′ triphosphate; “dUTP” means deoxyuridine 5′ triphosphate; “dCTP” means dexoxycytidine 5′ triphosphate; “dGTP” means deoxyguanosine 5′ triphosphate; “GuSCN” means Guanidinium thiocyanate; “EDTA” means ethylenediamine tetraacetic acid; “TE” means Tris-EDTA; “SCC” means sodium chloride/sodium citrate; “APE” means a solution of ammonia acetate, ammonia phosphate, EDTA; “PBS” means phosphate buffered saline; and “HRP” means horseradish peroxidase.
Vero 76 cells were maintained in MEM with Earle's salts, L-glutamine, 8% FBS (Hyclone, A-1111-L) and 100 units/mL Penicillin-100 μg/mL Streptomycin. For assay conditions, FBS was reduced to 2%. Cells are seeded into 96-well tissue culture plates at a density of 5×10^4 cells/well after being incubated for 45 min at 37° C. in the presence of HSV-1 or HSV-2 (MOI=0.001). Test compounds are added to the wells and the plates are incubated at 37° C. for 40–48 hours. Cell lysates are prepared as follows: media was removed and replaced with 150 μL/well 0.2 N NaOH with 1% Igepal CA 630 or NP-40. Plates were incubated up to 14 days at room temperature in a humidified chamber to prevent evaporation.
For the detection probe, a gel-purified, digoxigenin-labeled, 710-bp PCR fragment of the HSV UL-15 sequence was utilized. PCR conditions included 0.5 μM primers, 180 μM dTTP, 20 μM dUTP-digoxigenin (Boehringer Mannheim 1558706), 200 μM each of dATP, dCTP, and dGTP, 1×PCR Buffer II (Perkin Elmer), 2.5 mM MgCl2, 0.025 units/μL of AmpliTaq Gold polymerase (Perkin Elmer), and 5 ng of gel-purified HSV DNA per 100 μL Extension conditions were 10 min at 95° C., followed by 30 cycles of 95° C. for 1 min, 55° C. for 30 sec, and 72° C. for 2 min. The amplification was completed with a 10-min incubation at 72° C. Primers were selected to amplify a 728 bp probe spanning a section of the HSV1 UL15 open reading frame (nucleotides 249–977). Single-stranded transcripts were purified with Promega M13 Wizard kits. The final product was mixed 1:1 with a mixture of 6 M GuSCN, 100 mM EDTA and 200 μg/mL herring sperm DNA and stored at 4° C.
The capture DNA plasmid (HSV UL13 region in pUC) was linearized by cutting with Xba I, denatured for 15 min at 95° C. and diluted immediately into Reacti-Bind DNA Coating Solution (Pierce, 17250, diluted 1:1 with TE buffer, pH 8) at 1 ng/μL 75 μL/well were added to Corning (#3922 or 9690) white 96-well plates and incubated at room temperature for at least 4 hrs before washing twice with 300 μL/well 0.2×SSC/0.05% Tween-20 (SSC/T buffer). The plates were then incubated overnight at room temperature with 150 μL/well 0.2 N NaOH, 1% IGEPAL and 10 μg/mL herring sperm DNA.
Twenty-seven (27) μL of cell lysate was combined with 45 μL of hybridization solution (final concentration: 3M GuSCN, 50 mM EDTA, 100 μg/ml salmon sperm DNA, 5×Denhardt's solution, 0.25×APE, and 5 ng of the digoxigenin-labeled detection probe). APE is 1.5 M NH4-acetate, 0.15 M NH4H2 phosphate, and 5 mM EDTA adjusted to pH 6.0. Mineral oil (50 μL) was added to prevent evaporation. The hybridization plates were incubated at 95° C. for 10 minutes to denature the DNA, then incubated at 42° C. overnight. The wells were washed 6× with 300 μL/well SSC/T buffer then incubated with 75 μL/well anti-digoxigenin-HRP-conjugated antibody (Boehringer Mannheim 1207733, 1:5000 in TE) for 30 min at room temperature. The wells were washed 6× with 300 μL/well with PBS/0.05% Tween-20 before 75 μL/well SuperSignal LBA substrate (Pierce) was added. The plates were incubated at room temperature for 30 minutes and chemiluminescence was measured in a Wallac Victor reader.
The following results were obtained for HSV-1.
Consider `Brc1cccc(-c2nn3c(N4CCCC4)cccc3c2-c2ccnc(NC3CCCC3)n2)c1` [Example 26, 4-[2-(3-Bromophenyl)-7-(1-pyrrolidinyl)pyrazolo[1,5-a]pyridin-3-yl]-N-cyclopentyl-2-pyrimidinamine], for which the half-inhibitory concentration (IC50) was determined as 0.6 µM.

For the compound `Nc1nccc(-c2c(-c3cccc(Br)c3)nn3c(NC4CCCC4)cccc23)n1` [Example 27, N-[3-(2-Amino-4-pyrimidinyl)-2-(3-bromophenyl)pyrazolo[1,5-a]pyridin-7-yl]-N-cyclopentylamine], the IC50 worked out at 1.5 µM.

For the compound `Nc1nccc(-c2c(-c3cccc(Br)c3)nn3c(N4CCCC4)cccc23)n1` [Example 28, 4-[2-(3-Bromophenyl)-7-(1-pyrrolidinyl)pyrazolo[1,5-a]pyridin-3-yl]-2-pyrimidinamine], the half-inhibitory concentration (IC50) worked out at 5 µM.

Consider `c1ccc(-c2cccc(-c3nn4c(NC5CCCC5)cccc4c3-c3ccnc(NC4CCCC4)n3)c2)cc1` [Example 29, 2-[1,1′-Biphenyl]-3-yl-N-cyclopentyl-3-[2-(cyclopentylamino)-4-pyrimidinyl]pyrazolo[1,5-a]pyridin-7-amine], for which the concentration for half-maximal inhibition (IC50) worked out at 3 µM.

For the compound `c1ccc(-c2cccc(-c3nn4c(N5CCCC5)cccc4c3-c3ccnc(NC4CCCC4)n3)c2)cc1` [Example 30, 4-[2-[1,1′-Biphenyl]-3-yl-7-(1-pyrrolidinyl)pyrazolo[1,5-a]pyridin-3-yl]-N-cyclopentyl-2-pyrimidinamine], the IC50 was determined as 0.8 µM.

With `c1cc(-c2ccncc2)cc(-c2nn3c(NC4CCCC4)cccc3c2-c2ccnc(NC3CCCC3)n2)c1` [Example 31, N-Cyclopentyl-3-[2-(cyclopentylamino)-4-pyrimidinyl]-2-[3-(4-pyridinyl)phenyl]pyrazolo[1,5-a]pyridin-7-amine], the IC50 came to 2 µM.

Consider `c1cc(-c2ccsc2)cc(-c2nn3c(NC4CCCC4)cccc3c2-c2ccnc(NC3CCCC3)n2)c1` [Example 32, N-Cyclopentyl-3-[2-(cyclopentylamino)-4-pyrimidinyl]-2-[3-(3-thienyl)phenyl]pyrazolo[1,5-a]pyridin-7-amine], for which the 50% inhibitory concentration (IC50) turned out to be 0.6 µM.

`c1cc(-c2cccs2)cc(-c2nn3c(NC4CCCC4)cccc3c2-c2ccnc(NC3CCCC3)n2)c1` [Example 33, N-Cyclopentyl-3-[2-(cyclopentylamino)-4-pyrimidinyl]-2-[3-(2-thienyl)-phenyl]pyrazolo[1,5-a]pyridin-7-amine]: the IC50 came out at 0.8 µM.

In the case of `Nc1cccc(-c2nn3c(NC4CCCC4)cccc3c2-c2ccnc(NC3CCCC3)n2)c1` [Example 34, 2-(3-Aminophenyl)-N-cyclopentyl-3-[2-(cyclopentylamino)-4-pyrimidinyl]pyrazolo[1,5-a]pyridin-7-amine], the 50% inhibitory concentration (IC50) is 0.6 µM.

`CC(=O)Nc1cccc(-c2nn3c(NC4CCCC4)cccc3c2-c2ccnc(NC3CCCC3)n2)c1` [Example 35, N-(3-{7-(Cyclopentylamino)-3-[2-(cyclopentylamino)-4-pyrimidinyl]pyrazolo[1,5-a]pyridin-2-yl}phenyl)acetamide]: the concentration for half-maximal inhibition (IC50) was found to be 2 µM.

As for `CS(=O)(=O)Nc1cccc(-c2nn3c(NC4CCCC4)cccc3c2-c2ccnc(NC3CCCC3)n2)c1` [Example 36, N-(3-{7-(Cyclopentylamino)-3-[2-(cyclopentylamino)-4-pyrimidinyl]-pyrazolo[1,5-a]pyridin-2-yl}phenyl)methanesulfonamide], the 50% inhibitory concentration (IC50) turned out to be 3 µM.

Regarding `Nc1cccc(-c2nn3c(N4CCCC4)cccc3c2-c2ccnc(NC3CCCC3)n2)c1` [Example 37, 4-[2-(3-Aminophenyl)-7-(1-pyrrolidinyl)pyrazolo[1,5-a]pyridin-3-yl]-N-cylopentyl-2-pyrimidinamine], the half-inhibitory concentration (IC50) was 3 µM.

As to `c1ccc(-c2nn3c(NC4CCCC4)cccc3c2-c2ccnc(NC3CCCC3)n2)cc1` [Example 38, N-Cyclopentyl-3-[2-(cyclopentylamino)-4-pyrimidinyl]-2-phenylpyrazolo-[1,5-a]pyridin-7-amine], the IC50 was found to be 0.3 µM.

For the compound `N#Cc1cccc(-c2nn3c(NC4CCCC4)cccc3c2-c2ccnc(NC3CCCC3)n2)c1` [Example 39, 3-{7-(Cyclopentylamino)-3-[2-(cyclopentylamino)-4-pyrimidinyl]pyrazolo[1,5-a]pyridin-2-yl}benzonitrile], the half-inhibitory concentration (IC50) came to 0.5 µM.

On to `NC(=O)c1cccc(-c2nn3c(NC4CCCC4)cccc3c2-c2ccnc(NC3CCCC3)n2)c1` [Example 40, 3-{7-(Cyclopentylamino)-3-[2-(cyclopentylamino)-4-pyrimidinyl]-pyrazolo[1,5-a]pyridin-2-yl}benzamide], for which the IC50 was 2.5 µM.

In the case of `O=C(O)c1cccc(-c2nn3c(NC4CCCC4)cccc3c2-c2ccnc(NC3CCCC3)n2)c1` [Example 41, 3-{7-(Cyclopentylamino)-3-[2-(cyclopentylamino)-4-pyrimidinyl]pyrazolo-[1,5-a]pyridin-2-yl}benzoic acid], the half-inhibitory concentration (IC50) was 3.5 µM.

Turning to `COc1ccc(-c2nn3c(NC4CCCC4)cccc3c2-c2ccnc(NC3CCCC3)n2)cc1Br` [Example 42, N-{4-[2-(3-Bromo-4-methoxyphenyl)-7-(cyclopentylamino)pyrazolo[1,5-a]pyridin-3-yl]-2-pyrimidinyl}-N-cyclopentylamine], the IC50 stood at 1.4 µM.

In the case of `Clc1ccc(-c2nn3c(NC4CCCC4)cccc3c2-c2ccnc(NC3CCCC3)n2)cc1Br` [Example 43, 2-(3-Bromo-4-chlorophenyl)-N-cyclopentyl-3-[2-(cyclopentylamino)-4-pyrimidinyl]pyrazolo[1,5-a]pyridin-7-amine], the IC50 was found to be 0.5 µM.

Turning to `Nc1cc(-c2nn3c(NC4CCCC4)cccc3c2-c2ccnc(NC3CCCC3)n2)ccc1Cl` [Example 44, 2-(3-Amino-4-chlorophenyl)-N-cyclopentyl-3-[2-(cyclopentylamino)-4-pyrimidinyl]pyrazolo[1,5-a]pyridin-7-amine], the concentration for half-maximal inhibition (IC50) turned out to be 1.8 µM.

For `CCCCNc1nccc(-c2c(-c3ccc(NCc4ccccc4)cc3)nn3c(NCCCC)cccc23)n1` [Example 45, 2-[4-(Benzylamino)phenyl]-N-butyl-3-[2-(butylamino)-4-pyrimidinyl]-pyrazolo[1,5-a]pyridin-7-amine], the concentration for half-maximal inhibition (IC50) was 22 µM.

`Cc1cccc(-c2nn3c(NC4CCCC4)cccc3c2-c2ccnc(NC3CCCC3)n2)c1` [Example 46, N-Cyclopentyl-3-[2-(cyclopentylamino)-4-pyrimidinyl]-2-(3-methylphenyl)pyrazolo[1,5-a]pyridin-7-amine]: the 50% inhibitory concentration (IC50) came to 0.2 µM.

With `Cc1cccc(-c2nn3c(NC4CCCC4)cccc3c2-c2nc(NC3CCCC3)nc(C)c2C)c1` [Example 48, N-cyclopentyl-3-[2-(cyclopentylamino)-5,6-dimethyl-4-pyrimidinyl]-2-(3-methylphenyl)pyrazolo[1,5-a]pyridin-7-amine], the IC50 is over 40 µM.

For `Cc1cccc(-c2nn3c(NC(C)C)cccc3c2-c2ccnc(NC3CCCC3)n2)c1` [Example 49, 3-[2-(Cyclopentylamino)-4-pyrimidinyl]-N-isopropyl-2-(3-methylphenyl)pyrazolo[1,5-a]pyridin-7-amine], the IC50 amounted to 0.5 µM.

Regarding `COc1cccc(-c2nn3c(Cl)cccc3c2-c2ccnc(NC3CCCC3)n2)c1` [Example 50, 4-[7-Chloro-2-(3-methoxyphenyl)pyrazolo[1,5-a]pyridin-3-yl]-N-cyclopentyl-2-pyrimidinamine], the IC50 came out at 2.5 µM.
